Measured values from patent publication US12274726B2, “Enteric aerobization therapy” (LPOXY THERAPEUTICS, INC., priority 2021, dated 2025).

Key:
[1] = tested on: Clostridioides difficile ATCC 43255; conditions: for cure rate: mouse CDI model, 14 days follow-up; for survival: treatment study day 0 to 4, followed for 14 days after inoculum, 10 mice per group
From the text: Because of the more humanlike characteristics for mouse CDI model, it was chosen to evaluate enteric aerobization.
Administration of enteric aerobization therapies presented several challenges with the mouse model. Administration of experimental compounds in rodents is normally performed via gastric gavage using a solution of the test article. However, this could not be accomplished with enteric aerobization therapy because dissolving the mixture prior to administration would result in premature loss of oxygen effervescence before entering the intestine. Further, there is uncertainty that rodents reliably pass enteric coated capsules or tablets from the stomach to the intestine. […] Finally, the small capsule or tablet sizes required for rodent administration severely limits dosages.
Thirty C57BL/6 female mice (18-22 g) fitted with duodenal catheters externalized and fitted with access button ports were purchased from Charles River Laboratories and singly housed in a temperature and humidity-controlled room with a 12-hour light cycle. The mice were divided into 3 groups of 10.
The mice were pretreated with an antibiotic cocktail in their drinking water for 8 consecutive days. This antibiotic cocktail was composed of 1% glucose, 500 mcg/mL kanamycin, 44 mcg/mL gentamicin, 1062.5 units per milliliter colistin, 269 mcg/mL metronidazole, 156 mcg/mL ciprofloxacin, 100 mcg/mL ampicillin, and 56 mcg/mL vancomycin. The antibiotic cocktail and drinking water were replaced every 2 to 3 days. Five days prior to infection the antibiotic water was removed and normal drinking water was provided to the animals. Three days prior to infection the animals received a single dose of clindamycin 10 mg per kilogram via oral administration in a volume of 10 mL per kilogram.
On study Day 0 mice were inoculated with the bacterial suspension of 5×10^5 CFU Clostridioides difficile ATCC 43255 via oral gavage. Eight hours after inoculation administration of vehicle, antibiotic control, and test article was initiated according to the following. The vehicle a.k.a. infection control group of 10 mice received 80 μL per hour 100% pure nitrogen gas via duodenal catheter. The infection control group of 10 mice received 50 mg/kg vancomycin via oral gavage once daily. […] Administration was continued from study day 0 to study day 4, a total of 5 days. The mice were followed for 14 days after inoculum recording daily weights and clinical observations. Animals that appeared severely moribund were euthanized. At the end of the study all animals were humanely euthanized.

[2] = up to maximum bolus tested, 200 microliters every 6 hours (8 mL/kg per bolus; 32 mL/kg/day)
Method: In a separate experiment using the above conditions the tolerance of bolus injection of 100% oxygen gas was tested.

| SMILES | clinical severity (total clinical score) compared to infection control group ([1]; FIG. 9) | animals showing clinical signs of infection/recurrence in the 2nd week after inoculation, after treatment ([1]; days 8-14) | adverse effects due to gas infusion ([1]; efficacy experiments, 3.2 mL/kg/hr, 76.8 mL/kg/day) | cure rate [1] [%] | survival [1] [%] | adverse effects of bolus injection [2] |
| --- | --- | --- | --- | --- | --- | --- |
| O=O [EAT, oxygen] | mildly ill | no recurrent infections | no adverse effects | 100 | 100 | No adverse effects were observed |
| CN[C@H](CC(C)C)C(=O)N[C@H]1C(=O)N[C@@H](CC(N)=O)C(=O)N[C@H]2C(=O)N[C@H]3C(=O)N[C@H](C(=O)N[C@H](C(=O)O)c4cc(O)cc(O)c4-c4cc3ccc4O)[C@H](O)c3ccc(c(Cl)c3)Oc3cc2cc(c3O[C@@H]2O[C@H](CO)[C@@H](O)[C@H](O)[C@H]2O[C@H]2C[C@](C)(N)[C@H](O)[C@H](C)O2)Oc2ccc(cc2Cl)[C@H]1O [vancomycin, reference compound] | – | – | – | 30 | 100 | – |
